Source: US10934250B2, “Process for the preparation of a chelating agent” (TRADE CORPORATION INTERNATIONAL, S.A. UNIPERSONAL, priority 2015, dated 2021)

Assay: Stability constants of Fe3+ chelates by spectrophotometric titration
Format: physicochemical
Details: for Stability constant, L + H^+ + Fe^3+ -> FeHL / Stability constant, L + Fe^3+ -> FeL / Stability constant, L + OH^- + Fe^3+ -> FeOHL: chelant agent:Fe^3+ 1:1, I=0.10M (NaCl), titration with 0.1 M NaOH pH 2.7 to 12.0, absorbance at 480 nm; for Stability constant, L + H^+ + Fe^3+ -> FeHL: FeHL predominant at pH <4.0; for Stability constant, L + Fe^3+ -> FeL: FeL predominant at pH 4 to 6.5; for Stability constant, L + OH^- + Fe^3+ -> FeOHL: FeOHL predominant at pH >6.5
Protocol: Stability constant of the Fe^3+ chelate compound of Example 4 (CRENEAHA) were determined spectrophotometrically by titration of a 2.22·10^−4 M (12.5 mg/L) and I=0.10M (NaCl) with 0.1 M NaOH from a pH of 2.7 to a pH of 12.0 and measuring the absorbance variation at 480 nm.
Stability constant of the Fe^3+ chelate compound of Example 2 (CREMEAHA) were determined spectrophotometrically by titration of a […] (12.5 mg/L) and I=0.10M (NaCl) with 0.1 M NaOH from a pH of 2.7 to a pH of 12.0 and measuring the absorbance variation at 480 nm.
Stability constants were determined minimizing the difference between calculated absorbance and experimental absorbance by varying the stability constants of Fe^3+. Every assay was repeated four times. The stability constant value for each compound is not dependent on the concentration of the solution used to carry out the spectrophotometric titration.

Row | SMILES | Stability constant, L + H^+ + Fe^3+ -> FeHL | Stability constant, L + Fe^3+ -> FeL | Stability constant, L + OH^- + Fe^3+ -> FeOHL | Stability of the Fe^3+ chelate compared with the Fe^3+ chelate of Example 2 (CREMEAHA) (particularly at high pH)
1 | Cc1ccc(O)c(C(NCCO)C(=O)O)c1 (stereo not shown) [CREMEAHA] | 33.9 | 28.6 | 21.2 | 
2 | Cc1ccc(O)c(C(NCCNCCO)C(=O)O)c1 (stereo not shown) [CRENEAHA] | 37.5 | 33.4 | 26.9 | better stability
